The values that follow come from the PolyMetriX glass transition set.

In the case of `*/C=C/CCCCCCCCCC(CCCCCCCCC*)COCCOCCOCCOCCOCc1ccc2ccc3cccc4ccc1c2c34` (repeat unit), the glass transition temperature is -36.00 °C.

`*/C=C/c1ccc(OC(=O)CCCCCCCCC(=O)Oc2cccc(-c3nnc(*)s3)c2)cc1` (repeat unit): the glass transition temperature came to 37.00 °C.

Consider `*/C=C/c1cccc(OC(=O)CCCCCCCCC(=O)Oc2ccc(-c3nnc(*)s3)cc2)c1` (repeat unit), for which the glass transition temperature was 55.00 °C. The molecule `*CC#C/C(C#CCOC(=O)CCCCCCCCC(=O)O*)=C\c1ccc(C#Cc2ccccc2)cc1` (repeat unit) displayed a glass transition temperature of 60.00 °C. With `*CC(O)COC(=O)CCCCCCCCCCC(=O)OCC(O)COc1ccc(O*)cc1` (repeat unit) the figure was 10.00 °C; with `*CCCCCCCCC(Cl)C(*)Cl` (repeat unit), -30.00 °C; with `*CCCCCCCCCCC(=O)N(*)C` (repeat unit), -12.00 °C. With `*CCCCCCCCCCC(Cl)C(*)Cl` (repeat unit) the figure was -32.00 °C; with `*CCCCCCCCCCC(c1ccc(O)cc1)C(*)c1ccc(O)cc1C` (repeat unit), -4.00 °C. Molecule `*CCCCCCCCCCCCNC(=O)CCCCCCCCCCCCC(=O)N*` (repeat unit) displayed a glass transition temperature of 49.00 °C.

Molecule `*CCCCCCCCCCNC(=O)CCCCCCCCCCC(=O)N*` (repeat unit) gave a glass transition temperature of 49.00 °C. Next, `*CCCCCCCCCCOC(=O)CCCCCCCCC(=O)O*` (repeat unit): -54.00 °C; `*CCCCCCOC(=O)CCCCCCCCC(=O)O*` (repeat unit): -38.00 °C. In turn, `*CCOC(=O)CCCCCCCCCCC(=O)OCCOC(=O)c1ccc(C(=O)O*)cc1` (repeat unit) yielded a glass transition temperature of -8.00 °C. For `*CCOCCOC(=O)CCCCCCCCC(=O)O*` (repeat unit), the glass transition temperature was -74.50 °C. Consider `*NC1CCC(CCC2CCC(NC(=O)CCCCCCCCCCC(*)=O)CC2)CC1` (repeat unit), for which the glass transition temperature was determined as 105.00 °C.

`*Nc1ccc(C2(c3ccc(NC(=O)c4cc(C(*)=O)cc(C(C)(C)C)c4)cc3)c3ccccc3-c3ccccc32)cc1` (repeat unit): the glass transition temperature was 284.00 °C. With `*Nc1ccc(Cc2ccc(NC(=O)c3cc(NC(=O)CCCCCCCCCCN4C(=O)c5ccccc5C4=O)cc(C(*)=O)c3)cc2)cc1` (repeat unit) the figure was 150.00 °C; with `*OC(=O)C(Cc1ccccc1)NC(=O)CCCCCCCCCCC(=O)NC(Cc1ccccc1)C(=O)OC1COC2C(*)COC12` (repeat unit), 76.00 °C. The molecule `*Oc1c(-c2ccccc2)cc(-c2cc(-c3ccccc3)c(OC(=O)CCCCCCCCC(*)=O)c(-c3ccccc3)c2)cc1-c1ccccc1` (repeat unit) returned a glass transition temperature of 98.00 °C.

The molecule `*Oc1ccc(/C(=C/c2ccc(-c3ccc(/C=C(\c4ccccc4)c4ccc(OC(=O)CCCCCCCCC(*)=O)cc4)cc3)cc2)c2ccccc2)cc1` (repeat unit) displayed a glass transition temperature of 111.00 °C. With `*Oc1ccc(C2(c3ccc(OC(=O)CCCCCCCCC(*)=O)cc3)c3ccccc3-c3ccccc32)cc1` (repeat unit) the figure was 151.00 °C; with `*Oc1cccc(NC(=O)CCCCCCCCCC(=O)Nc2ccc(*)cc2)c1` (repeat unit), 110.00 °C. The molecule `*Oc1ccccc1C(=O)OC(=O)c1ccccc1OC(=O)CCCCCCCCC(*)=O` (repeat unit) came in with a glass transition temperature of 28.00 °C. The molecule `*c1ccc(OCCCCCCCCCCCOC(=O)CCCCCCCCC(=O)OCCCCCCCCCCCOc2ccc(-c3nnc(*)s3)cc2)cc1` (repeat unit) came in with a glass transition temperature of 52.00 °C. In turn, `*c1cccc(NC(=O)CCCCCCCCCCC(=O)Nc2cccc(S(*)(=O)=O)c2)c1` (repeat unit) gave a glass transition temperature of 107.00 °C.
